Peptide text beside a SMILES is read from it. * marks the point of attachment. MaleimidoPEG4propanoyl = O=C1C=CC(=O)N1CCOCCOCCOCCOCCC(=O)*; X20 = O=C1C=CC(=O)N1CCOCCOCCOCCOCCOCCCC(=O)*; X4 = O=C1C=CC(=O)N1CCOCCOCCOCCOCCCCCCCC(=O)*; X53 = O=C1C=CC(=O)N1CCOCCOCCOCCOCCCCCCC(=O)*; X24 = O=C1C=CC(=O)N1CCOCCOCCOCCOCCOCCC(=O)*; X27 = O=C1C=CC(=O)N1CCOCCOCCOCCOCCCCCC(=O)*; X19 = O=C1C=CC(=O)N1CCOCCOCCOCCOCCOCC(=O)*; X25 = O=C1C=CC(=O)N1CCOCCOCCOCCOCCCCC(=O)*; X10 = O=C1C=CC(=O)N1CCOCCOCCOCCOCCCC(=O)*; X6 = O=C1C=CC(=O)N1CCOCCOCCOCCCCCCCC(=O)*; X35 = O=C1C=CC(=O)N1CCOCCOCCOCCOCC(=O)*
Assay: Half-lives and pharmacokinetic parameters of polypeptides vs HM-1
Details: in vivo; for half-life: T1/2β (half-life)

SMILES	AUC(0-inf) [ng·h/mL]	MRT inf [h]	clearance [mL/min/kg]	half-life [h]
C[C@H](NC(=O)CNC(=O)[C@H](CCCNC(=N)N)NC(=O)CCCCCCCOCCOCCOCCN1C(=O)C=CC1=O)C(=O)N[C@@H](CC(=O)O)C(=O)N[C@@H](CCCNC(=N)N)C(=O)N[C@@H](C)C(=O)NCC(=O)NCC(=O)NCC(=O)NCC(=O)N[C@@H](CCCNC(=N)N)C(=O)NCC(=O)N[C@@H](CC(=O)O)C(=O)O [X69] (X6-RGADRAGGGGRGD-OH)	26900 ± 8290	48.2 ± 14.3	0.62	33.38 ± 0.32
C[C@H](NC(=O)CNC(=O)[C@H](CCCNC(=N)N)NC(=O)COCCOCCOCCOCCN1C(=O)C=CC1=O)C(=O)N[C@@H](CC(=O)O)C(=O)N[C@@H](CCCNC(=N)N)C(=O)N[C@@H](C)C(=O)NCC(=O)NCC(=O)NCC(=O)NCC(=O)N[C@@H](CCCNC(=N)N)C(=O)NCC(=O)N[C@@H](CC(=O)O)C(=O)O [X70] (X35-RGADRAGGGGRGD-OH)	28000 ± 8160	50.2 ± 10.5	0.595	34.76 ± 0.26
C[C@H](NC(=O)CNC(=O)[C@H](CCCNC(=N)N)NC(=O)CCOCCOCCOCCOCCN1C(=O)C=CC1=O)C(=O)N[C@@H](CC(=O)O)C(=O)N[C@@H](CCCNC(=N)N)C(=O)N[C@@H](C)C(=O)NCC(=O)NCC(=O)NCC(=O)NCC(=O)N[C@@H](CCCNC(=N)N)C(=O)NCC(=O)N[C@@H](CC(=O)O)C(=O)O [X71] (MaleimidoPEG4propanoyl-RGADRAGGGGRGD-OH)	28300 ± 8140	50.7 ± 13.4	0.588	35.13 ± 0.34
C[C@H](NC(=O)CNC(=O)[C@H](CCCNC(=N)N)NC(=O)CCCOCCOCCOCCOCCN1C(=O)C=CC1=O)C(=O)N[C@@H](CC(=O)O)C(=O)N[C@@H](CCCNC(=N)N)C(=O)N[C@@H](C)C(=O)NCC(=O)NCC(=O)NCC(=O)NCC(=O)N[C@@H](CCCNC(=N)N)C(=O)NCC(=O)N[C@@H](CC(=O)O)C(=O)O [X72] (X10-RGADRAGGGGRGD-OH)	33800 ± 7140	60.5 ± 12.3	0.493	41.92 ± 0.29
C[C@H](NC(=O)CNC(=O)[C@H](CCCNC(=N)N)NC(=O)CCCCOCCOCCOCCOCCN1C(=O)C=CC1=O)C(=O)N[C@@H](CC(=O)O)C(=O)N[C@@H](CCCNC(=N)N)C(=O)N[C@@H](C)C(=O)NCC(=O)NCC(=O)NCC(=O)NCC(=O)N[C@@H](CCCNC(=N)N)C(=O)NCC(=O)N[C@@H](CC(=O)O)C(=O)O [X73] (X25-RGADRAGGGGRGD-OH)	26700 ± 8240	47.9 ± 13.6	0.623	33.16 ± 0.26
C[C@H](NC(=O)CNC(=O)[C@H](CCCNC(=N)N)NC(=O)CCCCCOCCOCCOCCOCCN1C(=O)C=CC1=O)C(=O)N[C@@H](CC(=O)O)C(=O)N[C@@H](CCCNC(=N)N)C(=O)N[C@@H](C)C(=O)NCC(=O)NCC(=O)NCC(=O)NCC(=O)N[C@@H](CCCNC(=N)N)C(=O)NCC(=O)N[C@@H](CC(=O)O)C(=O)O [X74] (X27-RGADRAGGGGRGD-OH)	33700 ± 7090	60.4 ± 13.7	0.495	41.82 ± 0.29
C[C@H](NC(=O)CNC(=O)[C@H](CCCNC(=N)N)NC(=O)CCCCCCOCCOCCOCCOCCN1C(=O)C=CC1=O)C(=O)N[C@@H](CC(=O)O)C(=O)N[C@@H](CCCNC(=N)N)C(=O)N[C@@H](C)C(=O)NCC(=O)NCC(=O)NCC(=O)NCC(=O)N[C@@H](CCCNC(=N)N)C(=O)NCC(=O)N[C@@H](CC(=O)O)C(=O)O [X75] (X53-RGADRAGGGGRGD-OH)	26700 ± 6960	47.8 ± 13.9	0.623	33.15 ± 0.25
C[C@H](NC(=O)CNC(=O)[C@H](CCCNC(=N)N)NC(=O)CCCCCCCOCCOCCOCCOCCN1C(=O)C=CC1=O)C(=O)N[C@@H](CC(=O)O)C(=O)N[C@@H](CCCNC(=N)N)C(=O)N[C@@H](C)C(=O)NCC(=O)NCC(=O)NCC(=O)NCC(=O)N[C@@H](CCCNC(=N)N)C(=O)NCC(=O)N[C@@H](CC(=O)O)C(=O)O [X76] (X4-RGADRAGGGGRGD-OH)	33900 ± 7640	60.6 ± 10.5	0.492	42.01 ± 0.33
C[C@H](NC(=O)CNC(=O)[C@H](CCCNC(=N)N)NC(=O)COCCOCCOCCOCCOCCN1C(=O)C=CC1=O)C(=O)N[C@@H](CC(=O)O)C(=O)N[C@@H](CCCNC(=N)N)C(=O)N[C@@H](C)C(=O)NCC(=O)NCC(=O)NCC(=O)NCC(=O)N[C@@H](CCCNC(=N)N)C(=O)NCC(=O)N[C@@H](CC(=O)O)C(=O)O [X77] (X19-RGADRAGGGGRGD-OH)	34600 ± 8180	61.9 ± 9.54	0.482	42.91 ± 0.25
C[C@H](NC(=O)CNC(=O)[C@H](CCCNC(=N)N)NC(=O)CCOCCOCCOCCOCCOCCN1C(=O)C=CC1=O)C(=O)N[C@@H](CC(=O)O)C(=O)N[C@@H](CCCNC(=N)N)C(=O)N[C@@H](C)C(=O)NCC(=O)NCC(=O)NCC(=O)NCC(=O)N[C@@H](CCCNC(=N)N)C(=O)NCC(=O)N[C@@H](CC(=O)O)C(=O)O [X78] (X24-RGADRAGGGGRGD-OH)	29800 ± 8510	53.4 ± 9.94	0.558	37.02 ± 0.31
C[C@H](NC(=O)CNC(=O)[C@H](CCCNC(=N)N)NC(=O)CCCOCCOCCOCCOCCOCCN1C(=O)C=CC1=O)C(=O)N[C@@H](CC(=O)O)C(=O)N[C@@H](CCCNC(=N)N)C(=O)N[C@@H](C)C(=O)NCC(=O)NCC(=O)NCC(=O)NCC(=O)N[C@@H](CCCNC(=N)N)C(=O)NCC(=O)N[C@@H](CC(=O)O)C(=O)O [X79] (X20-RGADRAGGGGRGD-OH)	30500 ± 8350	54.6 ± 10.2	0.547	37.87 ± 0.32
